In data set [1] the test system is Plasmodium berghei. Kind of data set: Antimalarial activity against Plasmodium berghei infected mice (Mus musculus). The class given is functional.
The nature of data set [2]: Selectivity ratio of cytotoxicity to human KB cells to antimalarial activity against Plasmodium falciparum. The class given is cell-based.

Turning to `CC1(C)[C@@H](n2cnc3ccccc3c2=O)C(=O)C[C@@H]2[C@@H](O)CCCN21`, the ED50 in data set [1] is 6 µmol/kg.
For the compound `CC1(C)[C@H](n2cnc3ccccc3c2=O)CC[C@H]2[C@@H](O)CCCN21`, the ED50 in data set [1] turned out to be 145 µmol/kg.
`CC[C@](C)(O)C(=O)O[C@H]1C(=O)O[C@@H]2C[C@H]3C(C)=CC(=O)[C@@H](O)[C@]3(C)[C@H]3[C@@]4(O)OC[C@]32[C@@H]1[C@@H](C)[C@H]4O` [GLAUCARUBINONE]: in data set [2], the selectivity ratio amounted to 285.

As a reminder, the ED50 is the midpoint of the dose-response relation. The low end stands for greater potency, the high end for weaker potency.

The values above are taken from ChEMBL document CHEMBL1152694, “Synthetic medicinal chemistry of selected antimalarial natural products” (Bioorg Med Chem, 2009).
